From patent publication US9790213B2, “Imidazoles for the treatment and prophylaxis of respiratory syncytial virus infection” (Hoffmann-La Roche Inc., priority 2015, dated 2017)

system: RSV Long strain (ATCC VR-26); test: Viral cytopathic effect (CPE) assay; assay type: cell-based; settings: human respiratory syncytial virus, 120 h, cell viability after 5 days (Cell Counting kit-8)
Protocol: EC50: the concentration of a compound where 50% of its maximal protection effect against viral induced CPE is observed LongStrain: a subtype RSV strain obtained from ATCC with catalog number VR-26 To measure anti-RSV activity of compounds, 96-well plates were seeded with 6×10^3 cells per well in Dulbecco's modified Eagle's medium (DMEM) containing 10% fetal bovine serum (FBS). Cells were infected the next day with sufficient RSV Long strain (ATCC) to produce an approximately 80-90% cytopathic effect after 5 days, in the presence of serial half-log diluted compound in a total volume of 200 μL per well. The viability of cells is assessed after 5 days using Cell Counting kit-8 (Dojindo Molecular Technologies). The absorbance at 450 nm and referenced at 630 nm is measured to determine 50% effective concentration (EC50).

`COc1cc(-c2noc(-c3cn(-c4ccccc4Br)c(C)n3)n2)cc(OC)c1OC` [Example 1-1, 5-(1-(2-Bromophenyl)-2-methyl-1H-imidazol-4-yl)-3-(3,4,5-trimethoxyphenyl)-1,2,4-oxadiazole] and `COc1cc(-c2noc(-c3ncn(-c4ccccc4Br)c3C)n2)cc(OC)c1OC` [Example 1-2, 5-[1-(2-Bromo-phenyl)-5-methyl-1H-imidazol-4-yl]-3-(3,4,5-trimethoxy-phenyl)-[1,2,4]oxadiazole] are within 1.5-fold of each other in EC50: 0.78 µM for the first, 0.6 µM for the second.

Going from `COc1cc(-c2noc(-c3nc(C)n(-c4ccccc4Br)c3C)n2)cc(OC)c1OC` [Example 1-3, 5-(1-(2-Bromophenyl)-2,5-dimethyl-1H-imidazol-4-yl)-3-(3,4,5-trimethoxyphenyl)-1,2,4-oxadiazole] to `COc1cc(-c2noc(-c3nc(C)n(-c4ccccc4Cl)c3C)n2)cc(OC)c1OC` [Example 1-18, 5-[1-(2-Chloro-phenyl)-2,5-dimethyl-1H-imidazol-4-yl]-3-(3,4,5-trimethoxy-phenyl)-[1,2,4]oxadiazole], the EC50 rises from 0.5 µM to 1.59 µM (3.2-fold). The first is the more potent here.

`COC(=O)c1ccc(-c2noc(-c3nc(C)n(-c4ccccc4Cl)c3C)n2)cc1` [Example 1-4, 4-{5-[1-(2-Chloro-phenyl)-2,5-dimethyl-1H-imidazol-4-yl]-[1,2,4]oxadiazol-3-yl}-benzoic acid methyl ester] and `Cc1nc(-c2nc(-c3ccc(C(=O)O)cc3)no2)c(C)n1-c1ccccc1Cl` [Example 2-2, 4-{5-[1-(2-Chloro-phenyl)-2,5-dimethyl-1H-imidazol-4-yl]-[1,2,4]oxadiazol-3-yl}-benzoic acid] are within 1.5-fold of each other in EC50: 4.06 µM for the first, 3.08 µM for the second.

Compared with `COc1cc(-c2noc(-c3ncn(-c4c(C)cccc4C)c3C)n2)cc(OC)c1OC` [Example 1-6, 5-(1-(2,6-Dimethylphenyl)-5-methyl-1H-imidazol-4-yl)-3-(3,4,5-trimethoxyphenyl)-1,2,4-oxadiazole], `COc1cc(-c2noc(-c3ncn(-c4c(C)cccc4Cl)c3C)n2)cc(OC)c1OC` [Example 1-9, 5-[1-(2-Chloro-6-methyl-phenyl)-5-methyl-imidazol-4-yl]-3-(3,4,5-trimethoxyphenyl)-1,2,4-oxadiazole] is 2.3-fold lower in EC50: 0.51 µM for the first, 0.22 µM for the second.

Going from `COc1ccc(OC)c(-c2noc(-c3nc(C)n(-c4ccccc4Br)c3C)n2)c1` [Example 1-7, 5-[1-(2-Bromo-phenyl)-2,5-dimethyl-1H-imidazol-4-yl]-3-(2,5-dimethoxy-phenyl)-[1,2,4]oxadiazole] to `COc1ccc(OC)c(-c2noc(-c3nc(C)n(-c4ccccc4Cl)c3C)n2)c1` [Example 1-17, 5-(1-(2-chlorophenyl)-2,5-dimethyl-1H-imidazol-4-yl)-3-(2,5-dimethoxy-phenyl)-1,2,4-oxadiazole], the EC50 rises from 0.68 µM to 1.81 µM (2.7-fold).

Going from `COc1ccc(-c2noc(-c3ncn(-c4c(C)cccc4Cl)c3C)n2)c(OC)c1` [Example 1-8, 5-[1-(2-Chloro-6-methyl-phenyl)-5-dimethyl-1H-imidazol-4-yl]-3-(2,4-dimethoxy-phenyl)-[1,2,4]oxadiazole] to `COc1ccc(-c2noc(-c3ncn(-c4c(C)cccc4C)c3C)n2)c(OC)c1` [Example 1-12, 3-(2,4-Dimethoxy-phenyl)-5-[1-(2,6-dimethyl-phenyl)-5-methyl-1H-imidazol-4-yl]-[1,2,4]oxadiazole], the EC50 rises from 0.193 µM to 0.362 µM (1.9-fold). The first is the more potent here.

`COc1ccc(-c2noc(-c3ncn(-c4c(C)cccc4C)c3C)n2)cc1` [Example 1-10, 5-(1-(2,6-Dimethylphenyl)-5-methyl-1H-imidazol-4-yl)-3-(4-methoxyphenyl)-1,2,4-oxadiazol] and `COc1ccc(-c2noc(-c3ncn(-c4c(C)cccc4Cl)c3C)n2)cc1` [Example 1-15, 5-[1-(2-Chloro-6-methyl-phenyl)-5-methyl-1H-imidazol-4-yl]-3-(4-methoxy-phenyl)-[1,2,4]oxadiazole] are within 1.5-fold of each other in EC50: 2.4 µM for the first, 1.74 µM for the second.

`COc1ccc(-c2noc(-c3nc(C)n(-c4ccccc4Cl)c3C)n2)cc1` [Example 1-11, 5-[1-(2-Chloro-phenyl)-2,5-dimethyl-1H-imidazol-4-yl]-3-(4-methoxy-phenyl)-[1,2,4]oxadiazole] and `COc1cccc(-c2noc(-c3nc(C)n(-c4ccccc4Cl)c3C)n2)c1` [Example 1-22, 5-[1-(2-Chloro-phenyl)-2,5-dimethyl-1H-imidazol-4-yl]-3-(3-methoxy-phenyl)-[1,2,4]oxadiazole] are within 1.5-fold of each other in EC50: 5.07 µM for the first, 5.96 µM for the second.

First: COC(=O)c1ccc(-c2noc(-c3nc(C)n(-c4ccccc4Cl)c3C)n2)cc1OC [Example 1-13, 4-{5-[1-(2-Chloro-phenyl)-2,5-dimethyl-1H-imidazol-4-yl]-[1,2,4]oxadiazol-3-yl}-2-methoxy-benzoic acid methyl ester]
Second: COC(=O)c1ccc(-c2noc(-c3nc(C)n(-c4ccccc4Cl)c3C)n2)cc1C [Example 1-21, 4-{5-[1-(2-Chloro-phenyl)-2,5-dimethyl-1H-imidazol-4-yl]-[1,2,4]oxadiazol-3-yl}-2-methyl-benzoic acid methyl ester]
The EC50 of the first is 2.2-fold lower: 2.38 µM for the first, 5.31 µM for the second.

Compared with `COc1ccccc1-c1noc(-c2nc(C)n(-c3ccccc3Cl)c2C)n1` [Example 1-14, 5-[1-(2-Chloro-phenyl)-2,5-dimethyl-1H-imidazol-4-yl]-3-(2-methoxy-phenyl)-[1,2,4]oxadiazole], `COc1ccc(-c2noc(-c3nc(C)n(-c4ccccc4Cl)c3C)n2)c(OC)c1` [Example 1-16, 5-[1-(2-Chloro-phenyl)-2,5-dimethyl-1H-imidazol-4-yl]-3-(2,4-dimethoxy-phenyl)-[1,2,4]oxadiazole] is 2.2-fold higher in EC50: 0.68 µM for the first, 1.47 µM for the second.

Compared with `COC(=O)c1ccc(-c2noc(-c3nc(C)n(-c4ccccc4Cl)c3C)n2)c(OC)c1` [Example 1-19, 4-{5-[1-(2-Chloro-phenyl)-2,5-dimethyl-1H-imidazol-4-yl]-[1,2,4]oxadiazol-3-yl}-3-methoxy-benzoic acid methyl ester], `COc1ccc(-c2noc(-c3nc(C)n(-c4ccccc4Cl)c3C)n2)c(F)c1` [Example 1-20, 5-[1-(2-Chloro-phenyl)-2,5-dimethyl-1H-imidazol-4-yl]-3-(2-fluoro-4-methoxy-phenyl)-[1,2,4]oxadiazole] is 3.2-fold higher in EC50: 0.92 µM for the first, 2.99 µM for the second. The first is the more potent here.

Compared with `COc1ccccc1-n1c(C)nc(-c2nc(-c3cc(OC)c(OC)c(OC)c3)no2)c1C` [Example 1-23, 5-[1-(2-Methoxy-phenyl)-2,5-dimethyl-1H-imidazol-4-yl]-3-(3,4,5-trimethoxy-phenyl)-[1,2,4]oxadiazole], `COc1cc(-c2noc(-c3nc(Br)n(-c4ccccc4Cl)c3C)n2)cc(OC)c1OC` [Example 1-24, 5-[2-Bromo-1-(2-chloro-phenyl)-5-methyl-1H-imidazol-4-yl]-3-(3,4,5-trimethoxy-phenyl)-[1,2,4]oxadiazole] is 2.7-fold lower in EC50: 2.08 µM for the first, 0.78 µM for the second.

First: COc1cc(-c2noc(-c3ncc(-c4ccccc4Cl)n3C)n2)cc(OC)c1OC [Example 1-25, 5-[5-(2-Chlorophenyl)-1-methyl-imidazol-2-yl]-3-(3,4,5-trimethoxyphenyl)-1,2,4-oxadiazole]
Second: COc1cc(-c2noc(-c3cnc(-c4ccccc4Cl)n3C)n2)cc(OC)c1OC [Example 1-26, 5-[2-(2-Chlorophenyl)-3-methyl-imidazol-4-yl]-3-(3,4,5-trimethoxyphenyl)-1,2,4-oxadiazole]
The EC50 of the first is 1.6-fold lower: 1.28 µM for the first, 2.03 µM for the second. The first is the more potent here.

`COc1cc(C(=O)O)ccc1-c1noc(-c2ncn(-c3c(C)cccc3Cl)c2C)n1` [Example 2-1, 4-[5-[1-(2-Chloro-6-methyl-phenyl)-5-methyl-imidazol-4-yl]-1,2,4-oxadiazol-3-yl]-3-methoxy-benzoic acid] and `COc1cc(C(=O)O)ccc1-c1noc(-c2ncn(-c3c(C)cccc3C)c2C)n1` [Example 2-3, 4-{5-[1-(2,6-Dimethyl-phenyl)-5-methyl-1H-imidazol-4-yl]-[1,2,4]oxadiazol-3-yl}-3-methoxy-benzoic acid] are within 1.5-fold of each other in EC50: 1.85 µM for the first, 1.97 µM for the second.

`COc1cc(-c2noc(-c3ncn(-c4c(C)cccc4C)c3C)n2)ccc1C(=O)O` [Example 2-4, 4-{5-[1-(2,6-Dimethyl-phenyl)-5-methyl-1H-imidazol-4-yl]-[1,2,4]oxadiazol-3-yl}-2-methoxy-benzoic acid] and `COc1cc(-c2noc(-c3ncn(-c4c(C)cccc4Cl)c3C)n2)ccc1C(=O)O` [Example 2-5, 4-{5-[1-(2-Chloro-6-methyl-phenyl)-5-methyl-1H-imidazol-4-yl]-[1,2,4]oxadiazol-3-yl}-2-methoxy-benzoic acid] are within 1.5-fold of each other in EC50: 0.76 µM for the first, 0.59 µM for the second.

Compared with `COc1cc(-c2noc(-c3nc(CO)n(-c4ccccc4Cl)c3C)n2)cc(OC)c1OC` [Example 3-1, (1-(2-Chlorophenyl)-5-methyl-4-(3-(3,4,5-trimethoxyphenyl)-1,2,4-oxadiazol-5-yl)-1H-imidazol-2-yl)methanol], `COc1cc(-c2noc(-c3nc(C(=O)O)n(-c4ccccc4Cl)c3C)n2)cc(OC)c1OC` [Example 3-2, 1-(2-Chlorophenyl)-5-methyl-4-(3-(3,4,5-trimethoxyphenyl)-1,2,4-oxadiazol-5-yl)-1H-imidazole-2-carboxylic acid] is 2.3-fold higher in EC50: 1.79 µM for the first, 4.05 µM for the second.

system: RSV; test: not given; settings: two separate Phase III clinical trials, selected high-risk infants, prophylactic use; cited from earlier work

For “palivizumab: palivizumab (Synagis, MedImmune), approved for prophylactic use in selected high-risk infants”, the “reduction in hospitalization rate” value is given as 45-55%.
